Test results taken from patent publication US20010051179A1, “METHOD FOR PREVENTING THE SPREAD OF INFECTIOUS MICROORGANISMS USING CYANOACRYLATE” (priority 1996, published 2001).

How the values were obtained:
Herpes Simplex virus [1] = experiment: Twice-daily coating of open Herpes Simplex lip sores with cyanoacrylate (case reports); type: in vivo, human
Text: A person had open sores on their lower lip from which a clear liquid was exuding. The sores were diagnosed as resulting from the Herpes Simplex virus. Their initial office treatment consisted of swabbing the open sores with n-butyl-cyanoacrylate using a surgical swab until the sores and surrounding tissue were completely covered. They were given a supply of n-butyl-cyanoacrylate and surgical paddles for self-application and instructed on their use. They were cautioned not to close their lips or press them together after applying the n-butyl-cyanoacrylate for two to three minutes so that the coating over the sores would be completely dry.
An individual had open sores on their lip from which a clear liquid was exuding. The sores were diagnosed as Herpes Simplex virus.
An individual had open sores on their lip from which a clear liquid was exuding. The sores were diagnosed as resulting from the Herpes Simplex virus. They were instructed to coat the sores with 2 acetyl cyanoacrylate using a surgical swab until the sores and surrounding tissue were completely covered.
An individual had open sores on their lip from which a clear liquid was exuding. The sores were diagnosed as resulting from the Herpes Simplex virus. They were instructed to coat the sores with octyl-cyanoacrylate using a surgical swab until the sores and surrounding tissue were completely covered.

Herpes Simplex virus [2] = experiment: Twice-daily coating of a Herpes Simplex prodrome on the lip with cyanoacrylate (case report); type: in vivo, human; details: itching prodrome on lower lip, topical coating twice daily for three days
Text: Before the open Herpes sore forms, an area where the sore will form becomes sensitive and itchy, and is known as a prodrome. The application of cyanoacrylate to the prodrome prevents the sore from forming. The cyanoacrylate can also be applied in the same manner as previously described to the prodrome.
A person had itching on their lower lip. The itching was diagnosed as resulting from a prodrome of the Herpes Simplex virus. Their initial office treatment consisted of being told to swab the prodrome with n-butyl-cyanoacrylate using a surgical swab until the prodrome and surrounding tissue were completely covered. They were given a supply of n-butyl-cyanoacrylate and surgical paddles for self-application and instructed on their use.

[3] = topical coating twice daily for three days

Row | Compound | state of the open sores (exudation of clear liquid) at end of treatment (Herpes Simplex virus [1]; [3]) | state of the open sores (exudation of clear liquid) at end of treatment (Herpes Simplex virus [1]; topical coating twice daily for several days) | outcome of prodrome (sore formation) (Herpes Simplex virus [2])
1 | 2 acetyl cyanoacrylate | no longer exuding |  | 
2 | C=C(C#N)C(=O)OCC [ethyl cyanoacrylate] |  | no longer exudating | 
3 | C=C(C#N)C(=O)OCCCC [n-butyl-cyanoacrylate] | no longer exudating |  | prodrome disappeared and no sores formed or exuded
4 | C=C(C#N)C(=O)OCCCCCCCC [octyl-cyanoacrylate] | no longer exuding |  | 
